The values below come from patent publication EP1444982A1, “The use of purine derivatives as selective kinase inhibitors” (MERCKLE GMBH, priority 2003, dated 2004).

Common to all, as to type: biochemical
One test concerns PKA (h). Put plainly: Kinase inhibition assay (33P-ATP, P30 filter, scintillation counting): PKA. As to conditions: 30µM Testsubstanz (100 µM ATP); 40 min.
The next test addresses Lck (h) (Homo sapiens, UniProt P06239). Kind of test: Kinase inhibition assay (33P-ATP, P30 filter, scintillation counting): Lck. As to conditions: 30µM Testsubstanz (100 µM ATP); read-out: Hemmung von Kinasen in % Lck (h). As for the experimental part:
(§1) Alle Kinasen werden auf zehnfache Arbeitskonzentration vor Anwendung in dem Essay verdünnt. Die Zusammensetzung des Verdünnungspuffers ist für jede Kinase in der nachfolgenden Tabelle angegeben.
(§2) Alle Substrate werden gelöst und auf eine Stammlösung in entsalztem Wasser verdünnt.
(§3) Lck (h)(5-10 mU) in einem Endreaktionsvolumen von 25 µl wird mit 50 mM Tris pH 7.5, 0.1 mM EGTA, 0.1 mM NaVanadate, 250 µM KVEKIGEGTYGVVYK (Cdc2 Peptid), 10 mM MgAcetat und [γ-^33P-ATP] inkubiert (spezifische Aktivität etwa 500 cpm/pmol, Konzentration wie erforderlich). Die Reaktion wird durch Zugabe von Mg^2+[γ-^33P-ATP] initiiert. Nach 40-minütiger Inkubation bei Raumtemperatur wird die Reaktion durch Zugabe von 5 µl einer 3 %igen Phosphorsäurelösung gestoppt. 10 µl der Reaktion werden dann auf ein P30-Filter gegeben und dreimal jeweils 5 Minuten in 50 mM Phosphorsäure und einmal in Methanol gewaschen. Anschließend wird getrocknet und eine Szintillationszählung durchgeführt.

The next test concerns the target MAPK1 (h) (Homo sapiens, UniProt P27361). Put plainly: Kinase inhibition assay: MAPK1. As to conditions: 30µM Testsubstanz (100 µM ATP); read-out: Hemmung von Kinasen in % MAPK1 (h).
From the text: as §1, §2

In the next test the target is MAPK2 (h) (Homo sapiens, UniProt P28482). Put plainly: Kinase inhibition assay: MAPK2. The note with it: 30µM Testsubstanz (100 µM ATP); read-out: Hemmung von Kinasen in % MAPK2 (h).
Sequence of MAPK2 (h) (P28482 whole entry): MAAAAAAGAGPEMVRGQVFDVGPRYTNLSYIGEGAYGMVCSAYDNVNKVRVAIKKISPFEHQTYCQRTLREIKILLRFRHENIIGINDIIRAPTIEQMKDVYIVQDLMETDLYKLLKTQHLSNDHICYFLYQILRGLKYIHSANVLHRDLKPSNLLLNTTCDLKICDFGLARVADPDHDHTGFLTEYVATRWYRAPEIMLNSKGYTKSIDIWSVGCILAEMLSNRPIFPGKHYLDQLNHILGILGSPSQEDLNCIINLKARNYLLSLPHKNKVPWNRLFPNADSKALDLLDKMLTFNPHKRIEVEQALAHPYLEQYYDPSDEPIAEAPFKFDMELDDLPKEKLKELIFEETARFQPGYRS
From the text: as §1, §2

A further test relates to ROCKII (h). Kind of test: Kinase inhibition assay (33P-ATP, P30 filter, scintillation counting): ROCK-II. As to conditions: 30µM Testsubstanz (100 µM ATP); 40 min.
The target in a further test is PKB (h) (Homo sapiens, UniProt P31749). Kind of test: Kinase inhibition assay (33P-ATP, P30 filter, scintillation counting): PKB. As to conditions: 40 min; 30µM Testsubstanz (100 µM ATP); read-out: Hemmung von Kinasen in % PKB (h). As for the experimental part:
as §1, §2
PKBα (h)(5-10mU) wird in einem Endreaktionsvolumen von 25 µl mit 8 mM MOPS pH 7.0, 0.2 mM EDTRA, 30 µM GRPRTSSFAEGKK, 10 mM MgAcetat und [γ-^33P-ATP] inkubiert (spezifische Aktivität etwa 50 cpm/pmol, Konzentration wie erforderlich). Die Reaktion wird durch Zugabe von Mg^2+[γ-^33P-ATP] initiiert. Nach 40-minütiger Inkubation bei Raumtemperatur wird die Reaktion durch Zugabe von 5 µl einer 3 %igen Phosphorsäurelösung gestoppt. 10 µl der Reaktion werden dann auf ein P30-Filter gegeben und dreimal jeweils 5 Minuten in 50 mM Phosphorsäure und einmal in Methanol gewaschen. Anschließend wird getrocknet und eine Szintillationszählung durchgeführt.

In a further test the target is c-RAF (h) (Homo sapiens, UniProt P04049). Put plainly: Kinase inhibition assay (33P-ATP, P30 filter, scintillation counting): c-RAF. The note with it: 40 min; 30µM Testsubstanz (100 µM ATP); read-out: Hemmung von Kinasen in % c-RAF (h). As for the experimental part:
as §1, §2
as §3, with “c-RAF (ha)(5-10 mU)” for “Lck (h)(5-10 mU)”, “mit 25” for “mit 50”, “pH 7.5,.0.02” for “pH 7.5, 0.1”, “EGTA, 0.66 mg/ml Myelin-Basisprotein,” for “EGTA, 0.1 mM NaVanadate, 250 µM KVEKIGEGTYGVVYK (Cdc2 Peptid),”, “etwa 50” for “etwa 500”

In a further test the target is MEK1 (h) (Homo sapiens, UniProt Q02750). Put plainly: Kinase inhibition assay: MEK1 (coupled to MAPK2 assay). As to conditions: 30µM Testsubstanz (100 µM ATP); read-out: Hemmung von Kinasen in % MEK1 (h). As to the method:
as §1, §2
MEK1 (h)(1-5 mU) in einem Endreaktionsvolumen von 25 µl wird mit 50 mM Tris pH 7.5, 0.2 mM EGTA, 0.1 % b-Mercaptoethanol, 0,01 % Brij-35, 1 µM inaktives MAPK2 (m), 10 mM MgAcetat und kaltem ATP inkubiert (Konzentration wie erforderlich). Die Reaktion wird durch Zugabe von MgATB initiiert. Nach 40-minütiger Inkubation bei Raumtemperatur werden […] dieses Inkubationsgemisches dazu verwendet, den oben beschriebenen MAPK2-Assay zu initiieren.

Another test concerns the target JNK3 (r) (Rattus norvegicus, UniProt P49187). Put plainly: Kinase inhibition assay: JNK3. As to conditions: 30µM Testsubstanz (100 µM ATP); read-out: Hemmung von Kinasen in % JNK3 (r).
From the text: as §1, §2

The next test addresses SAPK2a (h) (Homo sapiens, UniProt Q16539). Put plainly: Kinase inhibition assay (33P-ATP, P30 filter, scintillation counting): SAPK2a. As to conditions: 30µM Testsubstanz (100 µM ATP); read-out: Hemmung von Kinasen in % SAPK2a (h). As for the experimental part:
as §1, §2
as §3, with “SAPK2a (h) wird in” for “Lck (h)(5-10 mU) in”, “µl” for “µl wird”, “mit 25” for “mit 50”, “pH 7,5, 0.02” for “pH 7.5, 0.1”, “EGTA, 0.33 mg/ml Myelin-Basisprotein,” for “EGTA, 0.1 mM NaVanadate, 250 µM KVEKIGEGTYGVVYK (Cdc2 Peptid),”, “etwa 50” for “etwa 500”

The next test addresses GSK3β (h) (Homo sapiens, UniProt P49841). Put plainly: Kinase inhibition assay (33P-ATP, P30 filter, scintillation counting): GSK3β. As to conditions: 30µM Testsubstanz (100 µM ATP); read-out: Hemmung von Kinasen in % GSK3β (h). As to the method:
as §1, §2
GSK3β (h)(5-10mU) in einem Endreaktionsvolumen von 25 µl wird mit 8 mM MOPS pH 7.0, 0.2 mM EDTA, 20 µM […](p) EDEEE (phospho GS2 Peptid), 10 mM MgAcetat und [γ-^33P-ATP] inkubiert (spezifische Aktivität etwa 500 cpm/pmol, Konzentration wie erforderlich). Die Reaktion wird durch Zugabe von Mg^2+[γ-^33P-ATP] initiiert. Nach 40-minütiger Inkubation bei Raumtemperatur wird die Reaktion durch Zugabe von 5 µl einer 3 %igen Phosphorsäurelösung gestoppt. 10 µl der Reaktion werden dann auf ein P30-Filter gegeben und dreimal jeweils 5 Minuten in 50 mM Phosphorsäure und einmal in Methanol gewaschen. Anschließend wird getrocknet und eine Szintillationszählung durchgeführt.

SMILES strings stand for the structures.

Sequence of PKB (h) (P31749 whole entry): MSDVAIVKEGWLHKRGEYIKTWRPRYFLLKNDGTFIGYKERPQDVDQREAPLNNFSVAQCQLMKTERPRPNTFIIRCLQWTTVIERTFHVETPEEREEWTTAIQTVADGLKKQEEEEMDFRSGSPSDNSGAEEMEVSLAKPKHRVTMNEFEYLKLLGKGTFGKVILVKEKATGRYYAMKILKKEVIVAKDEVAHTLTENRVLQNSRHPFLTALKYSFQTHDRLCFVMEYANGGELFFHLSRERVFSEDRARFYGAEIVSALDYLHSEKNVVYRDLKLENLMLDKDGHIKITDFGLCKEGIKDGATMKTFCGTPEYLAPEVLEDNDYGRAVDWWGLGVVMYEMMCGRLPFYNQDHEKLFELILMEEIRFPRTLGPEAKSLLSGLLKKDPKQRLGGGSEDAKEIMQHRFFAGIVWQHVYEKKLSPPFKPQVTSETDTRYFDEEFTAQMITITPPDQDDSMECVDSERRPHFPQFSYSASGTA
Sequence of JNK3 (r) (P49187 whole entry): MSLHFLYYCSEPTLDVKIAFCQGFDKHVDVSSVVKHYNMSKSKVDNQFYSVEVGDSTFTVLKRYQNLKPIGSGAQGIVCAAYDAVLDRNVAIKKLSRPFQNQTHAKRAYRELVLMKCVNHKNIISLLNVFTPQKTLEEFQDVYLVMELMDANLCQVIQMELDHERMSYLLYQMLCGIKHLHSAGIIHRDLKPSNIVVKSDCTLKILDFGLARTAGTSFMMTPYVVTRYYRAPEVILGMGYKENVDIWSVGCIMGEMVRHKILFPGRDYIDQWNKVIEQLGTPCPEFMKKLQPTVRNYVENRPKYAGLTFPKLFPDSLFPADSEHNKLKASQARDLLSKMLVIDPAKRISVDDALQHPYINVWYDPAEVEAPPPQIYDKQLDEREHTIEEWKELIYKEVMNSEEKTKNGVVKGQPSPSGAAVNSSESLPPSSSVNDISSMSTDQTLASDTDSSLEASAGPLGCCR
Sequence of c-RAF (h) (P04049 whole entry): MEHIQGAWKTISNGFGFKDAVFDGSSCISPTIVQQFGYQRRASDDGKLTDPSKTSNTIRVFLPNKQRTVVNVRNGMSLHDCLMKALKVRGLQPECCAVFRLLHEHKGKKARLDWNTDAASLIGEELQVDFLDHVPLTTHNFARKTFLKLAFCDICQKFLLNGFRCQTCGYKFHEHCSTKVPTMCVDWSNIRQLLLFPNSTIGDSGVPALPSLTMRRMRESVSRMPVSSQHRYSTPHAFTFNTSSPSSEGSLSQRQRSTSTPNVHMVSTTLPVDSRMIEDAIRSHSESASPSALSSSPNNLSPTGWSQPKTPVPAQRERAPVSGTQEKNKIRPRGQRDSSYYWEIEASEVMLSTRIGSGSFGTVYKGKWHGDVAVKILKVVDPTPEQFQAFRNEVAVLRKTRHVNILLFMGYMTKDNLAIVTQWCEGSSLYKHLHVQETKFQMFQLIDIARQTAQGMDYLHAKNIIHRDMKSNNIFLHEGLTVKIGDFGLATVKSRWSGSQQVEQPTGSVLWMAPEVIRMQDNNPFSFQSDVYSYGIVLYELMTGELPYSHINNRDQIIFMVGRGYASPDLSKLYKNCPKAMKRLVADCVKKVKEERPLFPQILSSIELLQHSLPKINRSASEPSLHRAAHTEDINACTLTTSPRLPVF
Sequence of MEK1 (h) (Q02750 whole entry): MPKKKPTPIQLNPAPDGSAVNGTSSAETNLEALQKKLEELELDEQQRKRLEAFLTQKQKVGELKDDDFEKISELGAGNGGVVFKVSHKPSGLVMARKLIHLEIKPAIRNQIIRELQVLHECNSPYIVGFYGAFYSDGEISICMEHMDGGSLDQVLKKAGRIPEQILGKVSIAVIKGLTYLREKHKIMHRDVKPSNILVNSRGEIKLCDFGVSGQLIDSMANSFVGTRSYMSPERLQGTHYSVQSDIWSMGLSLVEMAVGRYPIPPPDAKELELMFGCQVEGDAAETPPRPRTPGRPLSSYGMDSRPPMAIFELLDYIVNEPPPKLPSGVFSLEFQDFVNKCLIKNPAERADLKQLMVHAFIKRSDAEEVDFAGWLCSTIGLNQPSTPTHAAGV
Sequence of SAPK2a (h) (Q16539 whole entry): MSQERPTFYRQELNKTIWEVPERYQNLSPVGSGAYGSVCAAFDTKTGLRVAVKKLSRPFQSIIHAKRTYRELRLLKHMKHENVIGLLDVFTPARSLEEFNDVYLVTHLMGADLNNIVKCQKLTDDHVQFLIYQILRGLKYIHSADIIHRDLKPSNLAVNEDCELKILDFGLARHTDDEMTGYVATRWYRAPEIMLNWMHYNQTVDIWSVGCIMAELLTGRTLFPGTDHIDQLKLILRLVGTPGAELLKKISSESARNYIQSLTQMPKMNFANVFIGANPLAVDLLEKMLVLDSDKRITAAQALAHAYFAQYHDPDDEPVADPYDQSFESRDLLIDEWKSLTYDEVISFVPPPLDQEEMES
Sequence of Lck (h) (P06239 whole entry): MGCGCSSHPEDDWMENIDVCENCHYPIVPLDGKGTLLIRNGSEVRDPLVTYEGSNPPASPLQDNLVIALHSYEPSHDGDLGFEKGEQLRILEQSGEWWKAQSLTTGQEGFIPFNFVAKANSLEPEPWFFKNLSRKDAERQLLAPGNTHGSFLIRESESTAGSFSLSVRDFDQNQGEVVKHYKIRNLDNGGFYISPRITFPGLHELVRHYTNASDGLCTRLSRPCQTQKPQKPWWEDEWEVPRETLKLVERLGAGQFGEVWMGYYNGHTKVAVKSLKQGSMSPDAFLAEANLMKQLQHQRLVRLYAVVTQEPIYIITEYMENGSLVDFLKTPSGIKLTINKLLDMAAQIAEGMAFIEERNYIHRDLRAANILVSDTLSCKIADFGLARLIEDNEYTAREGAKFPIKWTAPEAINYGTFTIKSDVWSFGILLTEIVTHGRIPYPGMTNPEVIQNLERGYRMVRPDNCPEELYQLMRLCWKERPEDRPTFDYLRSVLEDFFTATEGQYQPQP
Sequence of MAPK1 (h) (P27361 whole entry): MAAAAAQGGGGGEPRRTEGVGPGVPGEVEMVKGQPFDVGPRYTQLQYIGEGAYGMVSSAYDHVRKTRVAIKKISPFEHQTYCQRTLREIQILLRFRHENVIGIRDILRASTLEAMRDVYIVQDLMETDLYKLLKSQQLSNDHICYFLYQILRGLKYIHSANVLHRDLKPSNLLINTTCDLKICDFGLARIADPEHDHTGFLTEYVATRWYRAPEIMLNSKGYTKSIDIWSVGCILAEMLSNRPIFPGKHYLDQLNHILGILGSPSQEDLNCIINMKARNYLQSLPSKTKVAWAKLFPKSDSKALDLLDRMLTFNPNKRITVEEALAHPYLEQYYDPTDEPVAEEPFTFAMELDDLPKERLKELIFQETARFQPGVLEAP
Sequence of GSK3β (h) (P49841 whole entry): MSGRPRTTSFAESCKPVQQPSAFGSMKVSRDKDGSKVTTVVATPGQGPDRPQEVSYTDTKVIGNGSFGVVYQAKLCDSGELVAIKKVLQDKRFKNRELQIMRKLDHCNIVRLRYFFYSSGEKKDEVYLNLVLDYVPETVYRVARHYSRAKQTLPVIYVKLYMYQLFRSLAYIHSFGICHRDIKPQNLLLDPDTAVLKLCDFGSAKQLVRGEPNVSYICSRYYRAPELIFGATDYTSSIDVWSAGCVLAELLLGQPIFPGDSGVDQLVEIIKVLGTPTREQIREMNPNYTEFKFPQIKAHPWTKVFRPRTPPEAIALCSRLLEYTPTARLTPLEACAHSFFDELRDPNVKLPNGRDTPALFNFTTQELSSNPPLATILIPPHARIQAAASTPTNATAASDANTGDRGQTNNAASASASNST

In the case of `Cn1c(-c2ccccc2)nc2c(Sc3ccccc3)ncnc21` [Verbd. 23, 9-Methyl-8-phenyl-6-phenylsulfanyl-9H-purin], in the test with PKA (h), the “Hemmung von Kinasen in % PKA (h)” value was found to be 3%. Besides, the inhibition at 30 µM at Lck (h) worked out at 5%; on MAPK1 (h), 10%; on MAPK2 (h) it was 0%; on PKB (h), 42%; on c-RAF (h), 12%; on MEK1 (h), 4%. Besides, the inhibition at 30 µM at JNK3 (r) worked out at 12%; at SAPK2a (h), 44%; at GSK3β (h), 0%. Further, in the test on ROCKII (h), the “Hemmung von Kinasen in % ROCKII (h)” value came out at 1%.
Turning to `Cn1c(-c2ccccc2)nc2c(Sc3ccc(F)cc3)ncnc21` [Verbd. 24, 6-(4-Fluoro-phenylsulfanyl)-9-methyl-8-phenyl-9H-purin], the “Hemmung von Kinasen in % PKA (h)” value in the test with PKA (h) is 3%. Also, the inhibition at 30 µM came to 20% at Lck (h); 11% on MAPK1 (h); 1% at MAPK2 (h); 29% on PKB (h); 14% at c-RAF (h); 7% on MEK1 (h). The inhibition at 30 µM amounted to 16% on JNK3 (r), 29% on SAPK2a (h) and 22% at GSK3β (h). Further, the “Hemmung von Kinasen in % ROCKII (h)” value in the test with ROCKII (h) came out at 9%.
As to `Cn1c(-c2ccccc2)nc2c(-c3ccc(F)cc3)ncnc21` [Verbd. 41, 6-(4-Fluoro-phenyl)-9-methyl-8-phenyl-9H-purin], in the test on PKA (h), the “Hemmung von Kinasen in % PKA (h)” value is 0%. Besides, the inhibition at 30 µM at Lck (h) was 17%; on MAPK1 (h), 20%; on MAPK2 (h) it was 1%; at PKB (h), 31%; on c-RAF (h), 24%; on MEK1 (h) it was 5%. For the same compound, the inhibition at 30 µM worked out at 12% on JNK3 (r), 23% at SAPK2a (h) and 26% at GSK3β (h). Besides, the “Hemmung von Kinasen in % ROCKII (h)” value in the test on ROCKII (h) was 0%.
For `Nc1ncnc2c1ncn2Cc1ccc(F)cc1` [Verbd. 42a, 9-(4-Fluoro-benzyl)-9H-purin-6-ylamin], the “Hemmung von Kinasen in % PKA (h)” value in the test with PKA (h) amounted to 1%. For the same compound, the inhibition at 30 µM on Lck (h) is 19%; at MAPK1 (h) it was 17%; at MAPK2 (h), 11%; at PKB (h), 0%; at c-RAF (h), 25%; on MEK1 (h), 7%. Further, the figures for the inhibition at 30 µM at JNK3 (r), at SAPK2a (h) and on GSK3β (h) were 17%, 7% and 7%, respectively. Besides, in the test with ROCKII (h), the “Hemmung von Kinasen in % ROCKII (h)” value is reported as 5%.
Turning to `Nc1ncnc2ncn(Cc3ccc(F)cc3)c12` [Verbd. 43, 7-(4-Fluoro-benzyl)-7H-purin-6-ylamin], the “Hemmung von Kinasen in % PKA (h)” value in the test on PKA (h) amounted to 7%. Moreover, the inhibition at 30 µM on Lck (h) is 0%; on MAPK1 (h), 26%; at MAPK2 (h), 5%; at PKB (h) it was 0%; at c-RAF (h) it was 28%; on MEK1 (h) it was 8%. In addition, the inhibition at 30 µM is 25% on JNK3 (r), 8% on SAPK2a (h) and 0% at GSK3β (h). Besides, in the test with ROCKII (h), the “Hemmung von Kinasen in % ROCKII (h)” value was determined as 6%.
As to `COc1ncnc2ncn(Cc3ccc(F)cc3)c12` [Verbd. 44, 7-(4-Fluoro-benzyl)-6-methoxy-7H-purin], the “Hemmung von Kinasen in % PKA (h)” value with PKA (h) worked out at 7%. For the same compound, the inhibition at 30 µM at Lck (h) amounted to 0%; on MAPK1 (h) it was 19%; at MAPK2 (h), 3%; on PKB (h), 0%; on c-RAF (h), 0%; on MEK1 (h), 3%. Also, the inhibition at 30 µM on JNK3 (r) is 30%; on SAPK2a (h) it was 8%; at GSK3β (h) it was 5%. For the same compound, the “Hemmung von Kinasen in % ROCKII (h)” value with ROCKII (h) was 1%.
As to `c1ccc(Sc2ncnc3[nH]ccc23)cc1` [Verbd. 52, 4-Phenylsulfanyl-7H-pyrrolo[2,3-d]pyrimidin], in the test with PKA (h), the “Hemmung von Kinasen in % PKA (h)” value is listed as 0%. The inhibition at 30 µM amounted to 56% on Lck (h); 11% on MAPK1 (h); 4% at MAPK2 (h); 0% at PKB (h); 22% at c-RAF (h); 41% at MEK1 (h). The inhibition at 30 µM at JNK3 (r) is 0%; on SAPK2a (h), 56%; at GSK3β (h), 11%. Besides, the “Hemmung von Kinasen in % ROCKII (h)” value with ROCKII (h) is 36%.
On to `Fc1ccc(Sc2ncnc3[nH]ccc23)cc1` [Verbd. 53, 4-(4-Fluoro-phenylsulfanyl)-7H-pyrrolo[2,3-d]pyrimidin], for which the “Hemmung von Kinasen in % PKA (h)” value with PKA (h) turned out to be 0%. Besides, the inhibition at 30 µM on Lck (h) turned out to be 52%; on MAPK1 (h), 10%; at MAPK2 (h), 2%; at PKB (h) it was 0%; on c-RAF (h), 43%; at MEK1 (h), 36%. Moreover, the results for the inhibition at 30 µM on JNK3 (r), at SAPK2a (h) and on GSK3β (h) were 5%, 79% and 4%, respectively. The “Hemmung von Kinasen in % ROCKII (h)” value with ROCKII (h) stood at 42%.
Turning to `Cn1c(-c2ccc([S+](C)[O-])cc2)nc2c(Sc3ccccc3)ncnc21` (stereo not drawn) [Verbd. 59, 8-(4-Methansulfinyl-phenyl)-9-methyl-6-phenylsulfanyl-9H-purin], the “Hemmung von Kinasen in % PKA (h)” value in the test on PKA (h) is reported as 0%. Besides, the inhibition at 30 µM on Lck (h) came to 30%; at MAPK1 (h) it was 0%; at MAPK2 (h), 0%; at PKB (h), 4%; on c-RAF (h) it was 0%; on MEK1 (h), 3%. Also, the inhibition at 30 µM at JNK3 (r) turned out to be 6%; on SAPK2a (h), 27%; at GSK3β (h), 4%. The “Hemmung von Kinasen in % ROCKII (h)” value in the test with ROCKII (h) came out at 1%.
